Laboratory results from publication PMC7956819, “Peptides from the Intestinal Tract of Breast Milk-Fed Infants Have Antimicrobial and Bifidogenic Activity” (International Journal of Molecular Sciences, 2021).
Entries after “also recorded” stand apart in the source; their conditions may differ. Peptide text beside a SMILES is read from it.

Tested on: Bifidobacterium longum spp. infantis ATCC 15697
Assay type: cell-based
Conditions: ATCC 15697, 18 h
Experimental: (§1) The bioactivity of the intestinal peptide extracts was determined via the microdilution method. Antimicrobial activity was screened with E. coli and S. aureus as representatives of common infant pathogens responsible for infectious disease, and growth-promoting activity was screened with B. infantis, one of the ideal colonizers of the infant gut. For the antimicrobial assays, colonies of bacteria were selected and inoculated in 2 mL of MHB and incubated at 37 °C for 24 h. The inoculum was diluted to 2 × 10^5 CFU/mL with MHB. For the growth-promoting assays, 100 µL of stock bacteria were inoculated in 10 mL of reinforced clostridial broth supplemented with 0.1% ascorbic acid and incubated under anaerobic conditions (BD BBL™ GasPak™) at 37 °C for 24 h. Optical density was measured at 600 nm, and the inoculum was diluted to an optical density of 0.05 with reinforced clostridial broth.
(§2) The intestinal peptide extracts were serially diluted with PBS to concentrations of 1×, 1/2×, 1/4×, 1/8×, 1/16×, 1/32×, 1/64×, and 1/128×. In a 96-well plate, 50 µL of each dilution was incubated with 50 µL of inoculum in duplicate, along with a negative control of 50 µL of inoculum with 50 µL of pure PBS and a sterility test of 50 µL of peptide with 50 µL of broth. Growth was determined by optical density readings at 600 nm (OD600) taken at 0 h (T0) and 18 h (T18). The following equation was used to determine percent inhibition or promotion of bacterial growth:
(§3) Candidate peptides were synthesized and dissolved in sterile nanopure water. Antimicrobial and growth-promoting assays were carried out as described above with serial dilutions ranging from […] to 15.6 μg/mL. Minimum inhibitory concentration (MIC) was determined by the concentration at which all visible growth was inhibited.

Compound | B. infantis MIC [µg/mL]
CC[C@H](C)[C@H](NC(=O)[C@@H]1CCCN1C(=O)[C@H](CCC(N)=O)NC(=O)[C@@H]1CCCN1C(=O)[C@@H](NC(=O)[C@H](CCC(N)=O)NC(=O)[C@H](CCC(N)=O)NC(=O)[C@H](CCSC)NC(=O)[C@H](CC(C)C)NC(=O)[C@@H]1CCCN1C(=O)[C@H](CCC(N)=O)NC(=O)[C@H](CC(C)C)NC(=O)[C@H](CC(C)C)NC(=O)[C@@H]1CCCN1C(=O)[C@H](CC(C)C)NC(=O)[C@@H]1CCCN1C(=O)[C@H](CC(C)C)NC(=O)[C@@H](N)Cc1c[nH]cn1)C(C)C)C(=O)O [Peptide 1] (H-HLPLPLLQPLMQQVPQPI-OH) | >3000
CC[C@H](C)[C@H](NC(=O)[C@H](CCC(N)=O)NC(=O)[C@H](Cc1c[nH]cn1)NC(=O)[C@@H](NC(=O)[C@@H]1CCCN1C(=O)[C@H](CC(N)=O)NC(=O)[C@H](CC(C)C)NC(=O)[C@@H](N)CC(C)C)[C@@H](C)O)C(=O)N[C@@H](Cc1ccc(O)cc1)C(=O)N1CCC[C@H]1C(=O)N[C@H](C(=O)N[C@H](C(=O)N[C@@H](CCC(N)=O)C(=O)N1CCC[C@H]1C(=O)N[C@@H](CC(C)C)C(=O)N[C@@H](C)C(=O)N1CCC[C@H]1C(=O)N[C@H](C(=O)N[C@@H](Cc1c[nH]cn1)C(=O)N[C@@H](CC(N)=O)C(=O)N1CCC[C@H]1C(=O)N[C@H](C(=O)N[C@@H](CO)C(=O)O)[C@@H](C)CC)C(C)C)[C@@H](C)O)C(C)C [Peptide 2] (H-LLNPTHQIYPVTQPLAPVHNPIS-OH) | >3000
CC[C@H](C)[C@H](NC(=O)[C@H](CCC(N)=O)NC(=O)[C@@H](N)Cc1c[nH]cn1)C(=O)N[C@@H](Cc1ccc(O)cc1)C(=O)N1CCC[C@H]1C(=O)N[C@H](C(=O)N[C@H](C(=O)N[C@@H](CCC(N)=O)C(=O)N1CCC[C@H]1C(=O)N[C@@H](CC(C)C)C(=O)O)[C@@H](C)O)C(C)C [Peptide 3] (H-HQIYPVTQPL-OH; N-terminus and C-terminus assumed) | >3000
CC[C@H](C)[C@H](NC(=O)[C@@H]1CCCN1C(=O)[C@H](CC(N)=O)NC(=O)[C@H](Cc1c[nH]cn1)NC(=O)[C@@H](NC(=O)[C@@H]1CCCN1C(=O)[C@H](C)NC(=O)[C@@H](N)CC(C)C)C(C)C)C(=O)O [Peptide 4] (H-LAPVHNPI-OH) | >3000

Tested on: Escherichia coli BL21 (DE3)
Assay type: cell-based
Conditions: BL21, 18 h
Experimental: as §1, §2, §3

Compound | E. coli MIC [µg/mL]
CC[C@H](C)[C@H](NC(=O)[C@@H]1CCCN1C(=O)[C@H](CCC(N)=O)NC(=O)[C@@H]1CCCN1C(=O)[C@@H](NC(=O)[C@H](CCC(N)=O)NC(=O)[C@H](CCC(N)=O)NC(=O)[C@H](CCSC)NC(=O)[C@H](CC(C)C)NC(=O)[C@@H]1CCCN1C(=O)[C@H](CCC(N)=O)NC(=O)[C@H](CC(C)C)NC(=O)[C@H](CC(C)C)NC(=O)[C@@H]1CCCN1C(=O)[C@H](CC(C)C)NC(=O)[C@@H]1CCCN1C(=O)[C@H](CC(C)C)NC(=O)[C@@H](N)Cc1c[nH]cn1)C(C)C)C(=O)O [Peptide 1] (H-HLPLPLLQPLMQQVPQPI-OH) | >3000
CC[C@H](C)[C@H](NC(=O)[C@H](CCC(N)=O)NC(=O)[C@H](Cc1c[nH]cn1)NC(=O)[C@@H](NC(=O)[C@@H]1CCCN1C(=O)[C@H](CC(N)=O)NC(=O)[C@H](CC(C)C)NC(=O)[C@@H](N)CC(C)C)[C@@H](C)O)C(=O)N[C@@H](Cc1ccc(O)cc1)C(=O)N1CCC[C@H]1C(=O)N[C@H](C(=O)N[C@H](C(=O)N[C@@H](CCC(N)=O)C(=O)N1CCC[C@H]1C(=O)N[C@@H](CC(C)C)C(=O)N[C@@H](C)C(=O)N1CCC[C@H]1C(=O)N[C@H](C(=O)N[C@@H](Cc1c[nH]cn1)C(=O)N[C@@H](CC(N)=O)C(=O)N1CCC[C@H]1C(=O)N[C@H](C(=O)N[C@@H](CO)C(=O)O)[C@@H](C)CC)C(C)C)[C@@H](C)O)C(C)C [Peptide 2] (H-LLNPTHQIYPVTQPLAPVHNPIS-OH) | >3000
CC[C@H](C)[C@H](NC(=O)[C@H](CCC(N)=O)NC(=O)[C@@H](N)Cc1c[nH]cn1)C(=O)N[C@@H](Cc1ccc(O)cc1)C(=O)N1CCC[C@H]1C(=O)N[C@H](C(=O)N[C@H](C(=O)N[C@@H](CCC(N)=O)C(=O)N1CCC[C@H]1C(=O)N[C@@H](CC(C)C)C(=O)O)[C@@H](C)O)C(C)C [Peptide 3] (H-HQIYPVTQPL-OH; N-terminus and C-terminus assumed) | >3000
CC[C@H](C)[C@H](NC(=O)[C@@H]1CCCN1C(=O)[C@H](CC(N)=O)NC(=O)[C@H](Cc1c[nH]cn1)NC(=O)[C@@H](NC(=O)[C@@H]1CCCN1C(=O)[C@H](C)NC(=O)[C@@H](N)CC(C)C)C(C)C)C(=O)O [Peptide 4] (H-LAPVHNPI-OH) | 3000

Tested on: Staphylococcus aureus ATCC 12600
Assay type: cell-based
Conditions: ATCC 12600, 18 h
Experimental: as §1, §2, §3

Compound | S. aureus MIC [µg/mL]
CC[C@H](C)[C@H](NC(=O)[C@@H]1CCCN1C(=O)[C@H](CCC(N)=O)NC(=O)[C@@H]1CCCN1C(=O)[C@@H](NC(=O)[C@H](CCC(N)=O)NC(=O)[C@H](CCC(N)=O)NC(=O)[C@H](CCSC)NC(=O)[C@H](CC(C)C)NC(=O)[C@@H]1CCCN1C(=O)[C@H](CCC(N)=O)NC(=O)[C@H](CC(C)C)NC(=O)[C@H](CC(C)C)NC(=O)[C@@H]1CCCN1C(=O)[C@H](CC(C)C)NC(=O)[C@@H]1CCCN1C(=O)[C@H](CC(C)C)NC(=O)[C@@H](N)Cc1c[nH]cn1)C(C)C)C(=O)O [Peptide 1] (H-HLPLPLLQPLMQQVPQPI-OH) | >3000
CC[C@H](C)[C@H](NC(=O)[C@H](CCC(N)=O)NC(=O)[C@H](Cc1c[nH]cn1)NC(=O)[C@@H](NC(=O)[C@@H]1CCCN1C(=O)[C@H](CC(N)=O)NC(=O)[C@H](CC(C)C)NC(=O)[C@@H](N)CC(C)C)[C@@H](C)O)C(=O)N[C@@H](Cc1ccc(O)cc1)C(=O)N1CCC[C@H]1C(=O)N[C@H](C(=O)N[C@H](C(=O)N[C@@H](CCC(N)=O)C(=O)N1CCC[C@H]1C(=O)N[C@@H](CC(C)C)C(=O)N[C@@H](C)C(=O)N1CCC[C@H]1C(=O)N[C@H](C(=O)N[C@@H](Cc1c[nH]cn1)C(=O)N[C@@H](CC(N)=O)C(=O)N1CCC[C@H]1C(=O)N[C@H](C(=O)N[C@@H](CO)C(=O)O)[C@@H](C)CC)C(C)C)[C@@H](C)O)C(C)C [Peptide 2] (H-LLNPTHQIYPVTQPLAPVHNPIS-OH) | >3000
CC[C@H](C)[C@H](NC(=O)[C@H](CCC(N)=O)NC(=O)[C@@H](N)Cc1c[nH]cn1)C(=O)N[C@@H](Cc1ccc(O)cc1)C(=O)N1CCC[C@H]1C(=O)N[C@H](C(=O)N[C@H](C(=O)N[C@@H](CCC(N)=O)C(=O)N1CCC[C@H]1C(=O)N[C@@H](CC(C)C)C(=O)O)[C@@H](C)O)C(C)C [Peptide 3] (H-HQIYPVTQPL-OH; N-terminus and C-terminus assumed) | >3000
CC[C@H](C)[C@H](NC(=O)[C@@H]1CCCN1C(=O)[C@H](CC(N)=O)NC(=O)[C@H](Cc1c[nH]cn1)NC(=O)[C@@H](NC(=O)[C@@H]1CCCN1C(=O)[C@H](C)NC(=O)[C@@H](N)CC(C)C)C(C)C)C(=O)O [Peptide 4] (H-LAPVHNPI-OH) | 3000

Tested on: not given
Conditions: function listed in the MBPDB for the identical sequence; not tested here; cited from earlier work
Source text: page 3: Ta ble S1. List of known bioactive peptides in the infant intestinal samples.

Compound | Function (known bioactive peptides in the infant intestinal samples)
AASDISLLDAQSAPLR | Antimicrobial
ALKALPMHIR | Cell-proliferative
ALNEINQFYQK | ACE-inhibitory
ALPMHIR | ACE-inhibitory; also recorded: Cell-proliferative
AMKPWIQPK | ACE-inhib itory
DAQSAPLRVY | ACE-inhibitory
DKIYPSFQPQPLIYP | ACE-inhibitory
ENLHLPLP | ACE-inhibitory
ENLHLPLPLL | ACE-inhibitory
EPVLGPVRGPFP | ACE-inhibitory
FALPQYLK | ACE-inhibitory; also recorded: Antioxidant
FFVAPFPEVFGK | ACE-inhib itory
FPEVFGK | ACE-inhib itory
FQPQPLIYP | ACE-inhibitory
FSDKIAK | ACE-inhibitory; also recorded: Antimicrobial
FVAPFPEVFG | ACE-inhib itory
GLDIQKVAGT | Antimicrobial
HPHPHLSF | ACE-inhibitory
IGSENSEKTTMP | ACE-inhib itory
IIAEKTKIPAVF | Antimicrobial
IKHQGLPQEV | Antimicrobial
INNQFLPYPY | DPP-I V-inhibitory
IQKVAGTW | ACE-inhibitory; also recorded: DPP-IV-inhibitory
IQPKTKVIPYVR | Antimicrobial

Compound | Function (known bioactive peptides in the infant intestinal samples)
IYPSFQPQPLIYP | ACE-inhibitory
LDIQKVAGTW | ACE-inhibitory
LENLHLPLP | ACE-inhibitory
LIVTQTMK | Cytotoxic
LKALPMH | ACE-inhibitory; also recorded: DPP-IV-inhibitory
LKPTPEGDL | DPP-IV-inhibitory
LKPTPEGDLE | DPP-IV-inhibitory
LLNQELLLNPTHQIYPV | Antimicrobial
LLYQEPVLGPVRGPFPIIV | ACE-inhibitory
LPQNIPPLT | DPP-IV-inhibitory
LRLKKYKVPQL | Antimicrobial
LTDLENLHLP | ACE-inhibitory
LVYPFPGPI | ACE-inhibitory
LYQEPVLGPVRGPFPIIV | Immunomodulatory
MAIPPKKNQDKTEIPTINT | Antimicrobial
MPFPKYPVEP | ACE-inhibitory
NLHLPLP | ACE-inhibitory
NLHLPLPLL | ACE-inhibitory
PVVVPPFLQPE | Antimicrobial
PYVRYL | ACE-inhibitory; also recorded: Antimicrobial; also recorded: Antioxidant
QELLLNPTHQIYPVTQPLAPVHNPISV | Antimicrobial
QEPVLGPVRGPFPIIV | ACE-inhibitory
QVVPYPQ | Antioxidant
RELEELNVPGEIVESLSSSEESITR | Caseinophosphopeptide; also recorded: Immunomodulatory

Compound | Function (known bioactive peptides in the infant intestinal samples)
RETIESLSSSEESITEYK | Cell-proliferative
SDIPNPIGSENSEK | Antimicrobial
SPTIPFFDPQIPK | Cell-proliferative
TEDELQDKIHPF | Antimicrobial
TKKTKLTEEEKNRL | Antimicrobial
TKVIPYVRYL | Antimicrobial
TPEVDDEALEK | Antimicrobial; also recorded: DPP-IV-inhibitory
TVYTKGRVMP | ACE-inhibitory
VENLHLPLPLL | ACE-inhibitory
VKEAMAPK | Antimicrobial; also recorded: Antioxidant
VLGPVRGPFP | ACE-inhibitory
VLPVPQKAVPYPQR | Antimicrobial
VLVLDTDYK | Antimicrobial; also recorded: DPP-IV-inhibitory
VYPFPGPI | PEP-inhibitory
VYPFPGPIPN | ACE-inhibitory; also recorded: Antioxidant
VYVEELKPTPEGDLEILLQK | Hypocholesterolemic
WSVPQPK | ACE-inhibitory; also recorded: Antioxidant
YANPAVVRP | ACE-inhibitory
YLGYLEQLLR | Anxiolytic
YQEPVLGPVR | ACE-inhibitory; also recorded: Immunomodulatory
YQEPVLGPVRGPFPI | Antimicrobial
YQEPVLGPVRGPFPIIV | ACE-inhibitory; also recorded: Antimicrobial; also recorded: Antithrombin; also recorded: Immunomodulatory
YQKFPQY | ACE-inhibitory; also recorded: Antioxidant
